Data published in PubChem BioAssay (NCI).
“And” between values parts separate entries of the source, which are not always exact repeats. Equal entries are not always repeated.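 Exposure lasted 48 hours, with cells grown in 96-well plates and compounds tested at five concentrations. The concentration for 50% growth inhibition is given as GI50. The concentration for full growth arrest is given as TGI.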

Assays:
Experiment in all cases: NCI anticancer screen, dose series, 48 h
T-47D breast = test system: T-47D breast
SNB-75 CNS = test system: SNB-75 CNS
SNB-19 CNS = test system: SNB-19 CNS
HOP-92 NSCLC = test system: HOP-92 NSCLC
SF-268 CNS = test system: SF-268 CNS
SK-MEL-5 melanoma = test system: SK-MEL-5 melanoma
COLO 205 colon = test system: COLO 205 colon
SF-295 CNS = test system: SF-295 CNS
UACC-257 melanoma = test system: UACC-257 melanoma
HL-60(TB) leukemia = test system: HL-60(TB) leukemia

SMILES	GI50 (T-47D breast)	TGI (T-47D breast)	GI50 (SNB-75 CNS) [µM]	TGI (SNB-75 CNS)	GI50 (SNB-19 CNS)	TGI (SNB-19 CNS)	GI50 (HOP-92 NSCLC) [µM]	TGI (HOP-92 NSCLC)	GI50 (SF-268 CNS)	TGI (SF-268 CNS)	GI50 (SK-MEL-5 melanoma)	TGI (SK-MEL-5 melanoma)	GI50 (COLO 205 colon)	TGI (COLO 205 colon)	GI50 (SF-295 CNS)	TGI (SF-295 CNS)	GI50 (UACC-257 melanoma)	TGI (UACC-257 melanoma)	GI50 (HL-60(TB) leukemia)	TGI (HL-60(TB) leukemia)
CC(C)=CC(=O)N[C@H]1CC[C@]2(C)C3CC[C@]4(C)C(C(C)N(C)C)=CCC4C3CCC2[C@H]1O (some centres not stated)	2.58 µM	9.59 µM	8.76	21.8 µM	14.8 µM	28.1 µM	7.72	22 µM	2.35 µM	6.63 µM	1.48 µM	2.95 µM	1.69 µM	3.3 µM	2.64 µM	9.07 µM	2.39 µM	5.59 µM	3.34 µM	9.11 µM
CN(C)CCCC1(c2ccc(F)cc2)OCc2cc(-c3cc4ccccc4s3)ccc21 (configuration not stated)	2.04 µM	3.75 µM	1.24	2.58 µM	1.72 µM	3.13 µM	1.33	2.95 µM	1.65 µM	3.29 µM	1.69 µM	3.05 µM	1.34 µM	2.74 µM	1.91 µM	3.6 µM	1.8 µM	3.27 µM	1.76 µM	3.39 µM
O=C(CI)Nc1ccc(O)c2ccccc12	1.7 µM	4.27 µM	1.61	4.98 µM	3.39 µM	11.7 µM	1.61	3.39 µM	2.03 µM	5.56 µM	1.63 µM	3.08 µM	0.379 µM	0.956 µM	3.38 µM	11.3 µM	1.54 µM	3.14 µM	1.61 µM	4.79 µM
C=C1C(=O)O[C@H]2[C@H]1CC/C(COC(=O)CCCc1c[nH]c3ccccc13)=C\CC[C@@]1(C)O[C@@H]21	2.17 µM	4.81 µM	12.6	26.6 µM	2.59 µM	7.87 µM	1.68	3.46 µM	1.69 µM	3.46 µM	1.74 µM	3.13 µM	1.86 µM	3.79 µM	5.69 µM	19 µM	2.03 µM	3.96 µM	1.63 µM	5.01 µM
Nc1ccc(COC(O)CN2CCCCC2)cc1[N+](=O)[O-] (configuration not stated)		> 100 µM		> 100 µM		> 100 µM		> 100 µM		> 100 µM		> 100 µM		> 100 µM		> 100 µM		> 100 µM		> 100 µM
CCC1(OC(=O)CN)C(=O)OCc2c1cc1n(c2=O)Cc2cc3ccccc3nc2-1 (configuration not stated)	0.0426 µM	0.916 µM	0.0183	0.246 µM and 0.484 µM	0.0128 µM	4.91 µM	0.0971		0.00689 µM	14.2 µM	0.0187 µM and < 0.0128 µM	0.107 µM and 0.0329 µM	0.276 µM	0.667 µM	0.00249 µM		0.0859 µM	0.721 µM and 0.545 µM		0.084 µM and < 0.0132 µM
Cc1c(N)nc(C(CC(N)=O)NCC(N)C(N)=O)nc1C(=O)NC(C(=O)NC(C)C(O)C(C)C(=O)NC(C(=O)NCCc1nc(-c2nc(C(=O)NCCCNC(C)c3ccccc3)cs2)cs1)C(C)O)C(OC1OC(CO)C(O)C(O)C1OC1OC(CO)C(O)C(OC(N)=O)C1O)c1cnc[nH]1 (configuration not stated)	23.8 µM	50 µM and > 100 µM	1.5	5.03 µM and 8.77 µM	14.5 µM	39.7 µM and > 100 µM	0.227	3.51 µM and 25.8 µM	11.1 µM	50 µM and 94.7 µM	1.51 µM	14.9 µM and 18.6 µM	32.6 µM	50 µM and > 100 µM	0.115 µM	5.22 µM and 3.46 µM	56.5 µM	50 µM and > 100 µM	32 µM	50 µM and > 100 µM
Cc1c(Cl)cccc1NC(=O)/C=C/c1ccccc1		> 100 µM		> 100 µM		> 100 µM		> 100 µM		> 100 µM		> 100 µM		> 100 µM		> 100 µM		> 100 µM		> 100 µM
CC(=O)/C=C/C1=C(c2csc3ccccc23)c2ccccc2CC1	22.6 µM	> 100 µM	22.4	> 100 µM	32.5 µM	> 100 µM	19.5	65.3 µM	31.8 µM	> 100 µM	13.4 µM	28.8 µM	20.5 µM	64.8 µM	21 µM	65.2 µM	20.8 µM	53.9 µM	13.6 µM	58.3 µM
C[C@H]1CNC(=O)c2cnn3ccc(nc23)N[C@H](C)c2cc(F)ccc2O1	1.6 µM	> 93.5 µM	0.146	1.05 µM	2.17 µM	47.4 µM	0.184	0.998 µM	0.809 µM	3.79 µM	8.91 µM	32.3 µM	0.779 µM	4.33 µM	0.595 µM	8.15 µM	6.45 µM	> 94 µM	4.66 µM	> 62.5 µM
CC(C)c1cccc(O)c(=O)c1	0.0075 µg/mL	0.0075 µg/mL		> 92.6 µM	1.2 µg/mL			> 100 µM	1.55 µg/mL	23.6 µg/mL and > 61.6 µM	1.35 µg/mL		1.21 µg/mL		2.52 µg/mL	71.6 µg/mL and > 100 µM	2.33 µg/mL	23 µg/mL and 46.6 µM	1.25 µg/mL	
COC(=O)c1c2c(c(C)[n+]([O-])c1C)C(=O)C=C(NCc1cccc(Cl)c1)C2=O	0.187 µM	1.71 µM	1.64	3.01 µM	1.01 µM	2.18 µM	1.81	4.1 µM	0.737 µM	3.15 µM	0.167 µM	0.316 µM	0.292 µM	0.961 µM	0.422 µM	1.66 µM	0.234 µM	0.725 µM	0.287 µM	0.935 µM
CCCCCCCCCCCCCCCCOP(=O)([O-])OCC[N+](C)(C)C	4.42 µM	16.2 µM and 35.9 µM	1.43		1.21 µM		1.14	3.12 µM and 15.3 µM	2.93 µM	13.7 µM and 52.7 µM	1.92 µM	5.35 µM and 52 µM	0.424 µM			53 µM	2.31 µM	6.98 µM and 64.7 µM	0.897 µM	3.84 µM and 16.3 µM
Cn1c(-c2ccccc2)c(/C=C/C2=[N+](C)c3ccccc3C2(C)C)c2ccccc21	0.34 µM	9.07 µM	1.63	10.7 µM	0.571 µM	15.5 µM	0.616	4.64 µM	1.32 µM	12.9 µM	0.363 µM	1.35 µM	1 µM	2.47 µM	0.775 µM	3.73 µM	0.405 µM	2.53 µM	0.254 µM	0.565 µM
C[C@]12CC[C@H]3[C@@H](CC4SC(N)=NC45C/C(=N/NC(N)=O)CC[C@]35C)[C@@H]1CCC2=O (some centres not stated)	1.86 µM	3.8 µM	1.58	3.5 µM	1.87 µM	3.62 µM	1.51	3.16 µM	1.78 µM	4.11 µM	1.57 µM	2.97 µM	2.06 µM	4.37 µM	1.61 µM	3.03 µM	2.4 µM	5.83 µM	2.73 µM	7.95 µM
O=CN1N=C(c2cccc(Nc3ccnc4cc(Cl)ccc34)c2)CC1c1ccccc1 (configuration not stated)	0.381 µM	9.59 µM	0.191	1.83 µM	0.585 µM	> 100 µM	0.209	0.787 µM	0.768 µM	41.2 µM	0.315 µM	2.02 µM	0.35 µM	2.76 µM	0.306 µM	1.66 µM	0.301 µM	37.6 µM	0.213 µM	0.487 µM
O=C(Nc1ccc(F)cc1)Nc1ccc(Br)c(C(F)(F)F)c1	1.62 µM	7.4 µM	1.79	5.38 µM	3.42 µM	15.6 µM	1.63	5.24 µM	2.97 µM	13.2 µM	1.67 µM	3.11 µM	1.72 µM	3.27 µM	1.39 µM	5.62 µM	2.73 µM	7.51 µM	1.87 µM	5.19 µM
C=C1SC(=Nc2ccccc2Cl)N(C(=O)c2sc3ccccc3c2Cl)C12CCCCC2	3.35 µM	> 100 µM	14	> 100 µM	7.56 µM	> 100 µM	2.01	9.31 µM	11.7 µM	> 100 µM	8.2 µM	> 100 µM	8.5 µM	22.4 µM	2.31 µM	23 µM	23.6 µM	> 100 µM	6.63 µM	89.3 µM
CCCCCCCC(=O)SCC/C=C/[C@@H]1CC(=O)NCc2nc(cs2)C2=N[C@@](C)(CS2)C(=O)N[C@@H](C(C)C)C(=O)N1	< 0.0124 µM	0.0677 µM	0.0312	> 69 µM	0.0419 µM	> 41.1 µM	< 0.0119	0.229 µM	0.0769 µM	> 50.5 µM	0.0233 µM	0.977 µM	0.0114 µM	0.0302 µM	0.0392 µM	0.402 µM	< 0.01 µM	0.0392 µM	0.013 µM	> 100 µM
Nc1nc(SCc2ccccc2Cl)cc(C(=O)O)n1		> 100 µM		> 100 µM		> 100 µM		> 100 µM		> 100 µM		> 100 µM		> 100 µM		> 100 µM		> 100 µM		> 100 µM
Cc1nc2ccccn2c1NC(=O)NNC(=S)Nc1ccc(F)cc1	> 100 µM	> 100 µM	> 100	> 100 µM	> 100 µM	> 100 µM	> 100	> 100 µM	> 100 µM	> 100 µM	> 100 µM	> 100 µM	> 100 µM	> 100 µM	> 100 µM	> 100 µM	> 100 µM	> 100 µM	> 100 µM	> 100 µM
Nc1nc2cc(CC[C@H]3C[C@@H](n4ccc5c(N)ncnc54)[C@H](O)[C@@H]3O)ccc2cc1Br	0.785 µM	27.2 µM	4	19.1 µM	7.09 µM	23.5 µM	6.66	39.9 µM	11.3 µM	27 µM	0.579 µM	2.98 µM	11.3 µM	37.3 µM	3.25 µM	19 µM	3.68 µM	19 µM	14.1 µM	38.5 µM
C=C1C(=O)O[C@H]2[C@H]1CC/C(COC(=O)OC/C1=C/CC[C@@]3(C)O[C@H]3[C@H]3OC(=O)[C@@H](CN(C)C)[C@@H]3CC1)=C\CC[C@@]1(C)O[C@@H]21	0.714 µM	3.08 µM	4.89	25.1 µM	4.67 µM	18.3 µM	0.497	1.98 µM	3.07 µM	13.7 µM	3.97 µM	15.1 µM	0.487 µM	1.93 µM	12.1 µM	24.9 µM	1.63 µM	4.11 µM	0.233 µM	0.845 µM
C[C@H]1COCCN1c1cc(C2(S(=O)(=O)C3CC3)CC2)nc(-c2ccc(NC(=S)NCCO)cc2)n1	< 0.01 µM	0.0224 µM	< 0.01	0.0865 µM	0.061 µM	11.5 µM	< 0.01	0.0607 µM	0.0332 µM	> 41.3 µM	0.0151 µM	0.147 µM	0.0172 µM	10.4 µM	0.0194 µM	0.228 µM	0.0187 µM	0.32 µM	0.702 µM	28.6 µM
COc1ccc2c(c1OC)C(C(Cl)(Cl)Cl)N1CCc3cc4c(cc3C1=C2)OCO4 (configuration not stated)		> 100 µM		> 100 µM		> 100 µM		84.7 µM		91.1 µM		15.4 µM		20.8 µM		> 100 µM		62.9 µM		45.2 µM
CC1(C)OC(=O)C(C#N)=C1C[n+]1ccccc1		> 10 µM		> 10 µM		> 10 µM		> 10 µM		> 10 µM		> 10 µM		> 10 µM		> 10 µM		> 10 µM		> 10 µM
